Among the data in publication PMC11284203 (Scientific Reports, 2024) are IC50, Ki and mode of inhibition values, retold here.

“Also recorded” adds a separate entry of the source.

T1 sequence (P53341 whole entry): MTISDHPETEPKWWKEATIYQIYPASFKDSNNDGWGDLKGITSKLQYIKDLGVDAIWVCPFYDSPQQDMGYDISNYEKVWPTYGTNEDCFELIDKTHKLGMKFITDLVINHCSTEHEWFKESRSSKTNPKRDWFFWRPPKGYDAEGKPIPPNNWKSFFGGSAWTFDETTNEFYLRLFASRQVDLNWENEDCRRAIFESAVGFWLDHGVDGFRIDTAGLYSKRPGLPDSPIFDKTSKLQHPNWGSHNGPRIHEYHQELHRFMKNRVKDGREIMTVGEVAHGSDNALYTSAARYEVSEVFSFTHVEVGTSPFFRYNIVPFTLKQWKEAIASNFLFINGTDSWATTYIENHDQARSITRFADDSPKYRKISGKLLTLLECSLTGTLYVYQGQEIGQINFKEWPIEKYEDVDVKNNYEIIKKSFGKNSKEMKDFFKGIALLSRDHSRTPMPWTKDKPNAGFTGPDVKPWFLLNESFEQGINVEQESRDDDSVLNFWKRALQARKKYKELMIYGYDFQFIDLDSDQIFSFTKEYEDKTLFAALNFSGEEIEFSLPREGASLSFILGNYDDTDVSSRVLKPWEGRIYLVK

One assay has as its target T1, α-glucosidase (Saccharomyces cerevisiae, UniProt P53341). The assay is described as follows: α-glucosidase inhibition assay.
Settings: not given
Regarding `COc1ccc2nc3cc(Cl)ccc3c(SCc3cn(Cc4ccc([N+](=O)[O-])cc4)nn3)c2c1` [Compound 7n, 9-((1-(4-nitrobenzyl)-1H-1,2,3-triazol-4-yl)methylthio) -6-chloro-2-methoxyacridine], the 50% inhibitory concentration (IC50) (in general, the point on the concentration scale where inhibition reaches its midpoint) is above 750 µM.
On the same count and under the same terms, the same measure for `COc1ccc(Cn2cc(CSc3c4ccc(Cl)cc4nc4ccc(OC)cc34)nn2)cc1` [Compound 7c, 9-((1-(4-methoxybenzyl)-1H-1,2,3-triazol-4-yl)methylthio)-6-chloro-2-methoxyacridine]: above 750 µM; for `COc1ccc2nc3cc(Cl)ccc3c(SCc3cn(Cc4ccccc4C)nn3)c2c1` [Compound 7d, 6-chloro-2-methoxy-9-(((1-(2-methylbenzyl)-1H-1,2,3-triazol-4yl)methyl)thio)acridine]: 482 ± 0.2 µM; for `COc1ccc2nc3cc(Cl)ccc3c(SCc3cn(Cc4ccc(Cl)cc4Cl)nn3)c2c1` [Compound 7l, 9-((1-(2,4-dichlorobenzyl)-1H-1,2,3-triazol-4-yl)methylthio)-6-chloro-2-methoxyacridine]: 229.2 ± 1.3 µM.
The same measure, in the same setting: the same measure for `COc1cccc(Cn2cc(CSc3c4ccc(Cl)cc4nc4ccc(OC)cc34)nn2)c1` [Compound 7b, 9-((1-(3-methoxybenzyl)-1H-1,2,3-triazol-4-yl)methylthio)-6-chloro-2-methoxyacridine]: above 750 µM; for `COc1ccc2nc3cc(Cl)ccc3c(SCc3cn(Cc4cccc(C)c4)nn3)c2c1` [Compound 7e, 6-chloro-2-methoxy-9-(((1-(3-methylbenzyl)-1H-1,2,3-triazol-4-yl)methyl)thio)acridine]: above 750 µM.
Compound `COc1ccc2nc3cc(Cl)ccc3c(SCc3cn(Cc4ccc(F)cc4)nn3)c2c1` [Compound 7h, 9-((1-(4-fluorobenzyl)-1H-1,2,3-triazol-4-yl)methylthio)-6-chloro-2-methoxyacridine] came in with an IC50 of 98 ± 0.3 µM.
Still for that read-out and setting: under `COc1ccc2nc3cc(Cl)ccc3c(SCc3cn(Cc4cccc(Cl)c4Cl)nn3)c2c1` [Compound 7k, 9-((1-(2,3-dichlorobenzyl)-1H-1,2,3-triazol-4-yl)methylthio)-6-chloro-2-methoxyacridine] stands above 750 µM; under `COc1ccc2nc3cc(Cl)ccc3c(SCc3cn(Cc4ccccc4[N+](=O)[O-])nn3)c2c1` [Compound 7m, 9-((1-(2-nitrobenzyl)-1H-1,2,3-triazol-4-yl)methylthio)-6-chloro-2methoxyacridine], above 750 µM; under `COc1ccc2nc3cc(Cl)ccc3c(SCc3cn(Cc4ccc(C)cc4)nn3)c2c1` [Compound 7f, 6-chloro-2-methoxy-9-(((1-(4-methylbenzyl)-1H-1,2,3-triazol-4-yl)methyl)thio) acridine], 123.1 ± 0.8 µM.
On the same count and under the same terms, the same measure for `COc1ccc2nc3cc(Cl)ccc3c(SCc3cn(Cc4ccccc4Br)nn3)c2c1` [Compound 7j, 9-((1-(2-bromobenzyl)-1H-1,2,3-triazol-4-yl)methylthio)-6-chloro-2-methoxyacridine]: 302.8 ± 0.6 µM.
The compound `COc1ccc2nc3cc(Cl)ccc3c(SCc3cn(Cc4ccccc4)nn3)c2c1` [Compound 7a, 9-((1-benzyl-1H-1,2,3-triazol-4-yl)methylthio)-6-chloro-2-methoxyacridine] had an IC50 of 169.1 ± 0.9 µM.
On the same count and under the same terms, the same measure for `COc1ccc2nc3cc(Cl)ccc3c(SCc3cn(Cc4cccc(F)c4)nn3)c2c1` [Compound 7g, 9-((1-(3-fluorobenzyl) -1H-1,2,3-triazol-4-yl)methylthio) -6-chloro-2-methoxyacridine]: 164 ± 0.6 µM; for `COc1ccc2nc3cc(Cl)ccc3c(SCc3cn(Cc4ccccc4Cl)nn3)c2c1` [Compound 7i, 9-((1-(2-chlorobenzyl)-1H-1,2,3-triazol-4-yl)methylthio) -6-chloro-2-methoxyacridine]: above 750 µM.

A further assay deals with T1, α-glucosidase. As to the kind of experiment: biochemical.
Settings: not given
For the compound `COc1ccc2nc3cc(Cl)ccc3c(SCc3cn(Cc4ccc(F)cc4)nn3)c2c1` [Compound 7h, 9-((1-(4-fluorobenzyl)-1H-1,2,3-triazol-4-yl)methylthio)-6-chloro-2-methoxyacridine], the affinity, expressed as Ki, was 98 µM.

The target of the next assay is T1, α-glucosidase.
Experiment: not given
The note with it: Lineweaver–Burk plot.
For the compound `COc1ccc2nc3cc(Cl)ccc3c(SCc3cn(Cc4ccc(F)cc4)nn3)c2c1` [Compound 7h, 9-((1-(4-fluorobenzyl)-1H-1,2,3-triazol-4-yl)methylthio)-6-chloro-2-methoxyacridine], the mode of inhibition result is “competitive inhibitor; also recorded: competitive inhibition”.
